Each structure is given as a SMILES string.

Data set [1] has as its target T1, Prostaglandin E synthase (Homo sapiens, UniProt O14684).
T1 sequence (O14684 whole entry): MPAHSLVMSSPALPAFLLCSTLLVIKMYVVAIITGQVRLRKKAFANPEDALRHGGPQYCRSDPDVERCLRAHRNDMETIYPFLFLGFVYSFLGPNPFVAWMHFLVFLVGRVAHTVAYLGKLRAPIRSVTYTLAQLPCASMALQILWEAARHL
Description: Inhibition of mPGES-1 in human whole blood assessed as reduction in LPS-induced PGE2 production preincubated for 30 mins followed by LPS stimulation for 20 to 24 hrs by LC/MS/MS analysis

Data set [2] has as its target T1, Prostaglandin E synthase. Briefly: Inhibition of human mPGES-1 expressed in 293E cells assessed as reduction in conversion of PGH2 to PGE2 after 1.5 min by LC/MS analysis. Format: cell-based.
The target of data set [3] is T1, Prostaglandin E synthase. Briefly: Inhibition of mPGES-1 in human A549 cells assessed as reduction in recombinant human interleukin-1 beta-induced PGE2 production preincubated for 30 mins measured after 18 hrs by ELISA. The format is cell-based. On the technique in general: ELISA stands for enzyme-linked immunosorbent assay.
Data set [4] is described as follows: Half life in rat at 1 mg/kg, iv. The format is ADME, organism-based. Conditions: in vivo.
Data set [5] in a line: Oral bioavailability in Beagle dog at 15 mg/kg. Format: ADME, organism-based, Canis lupus familiaris. Conditions: in vivo.
Data set [6] is described as follows: Drug metabolism in human liver microsomes at 4 uM. The format is ADME. Particulars: read-out: Drug metabolism. On the technique in general: Liver microsomes are vesicles of endoplasmic reticulum, rich in cytochrome P450 enzymes.
The nature of data set [7]: Volume of distribution at steady state in rat at 1 mg/kg, iv. Format: ADME, organism-based. Conditions: in vivo, read-out: Vdss.
A short description of data set [8]: Clearance in Beagle dog at 1 mg/kg, iv. The format is ADME, organism-based, Canis lupus familiaris. Particulars: in vivo.
Data set [9] is described as follows: Cmax in rat at 5 mg/kg, po. Format: ADME, organism-based. More on the design: dose 5 mg/kg, route oral. Particulars: in vivo.
A short description of data set [10]: Inhibition of rat mPGES-1.
Data set [11] can be described thus: Oral bioavailability in rat at 5 mg/kg. Conditions: in vivo. The format is ADME, organism-based.
For data set [12], the target named is CYP2C9 (Homo sapiens, UniProt P11712). In words: Inhibition of CYP2C9 in human hepatic microsomes assessed as reduction in probe substrate metabolism at 10 uM. The format is ADME. Particulars: liver microsomes.
Data set [13] deals with T2, Prostaglandin E synthase (Canis lupus familiaris, UniProt A0SYQ0).
T2 sequence (A0SYQ0 whole entry): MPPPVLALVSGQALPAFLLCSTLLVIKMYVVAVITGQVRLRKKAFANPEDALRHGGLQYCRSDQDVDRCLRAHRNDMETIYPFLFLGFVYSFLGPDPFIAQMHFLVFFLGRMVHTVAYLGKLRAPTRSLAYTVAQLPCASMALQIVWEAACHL
Briefly: Inhibition of mPGES-1 in dog whole blood. The format is tissue-based.

The nature of data set [14]: Clearance in rat at 1 mg/kg, iv. The format is ADME, organism-based. Conditions: in vivo.
A short description of data set [15]: Drug metabolism in rat liver microsomes at 4 uM. Conditions: read-out: Drug metabolism. The format is ADME.
A short description of data set [16]: Time at which plasma concentration remains above dog whole blood IC50 level in Beagle dog at 3 mg/kg, po. Conditions: in vivo. Format: ADME, organism-based, Canis lupus familiaris.
A short description of data set [17]: Drug metabolism in dog liver microsomes at 4 uM. The format is ADME, Canis lupus familiaris. Conditions: read-out: Drug metabolism.
The target of data set [18] is T3, CYP3A4 (Homo sapiens, UniProt P08684). Briefly: Time dependent inhibition of CYP3A4 in human hepatic microsomes assessed as reduction in probe substrate metabolism at 10 uM. Format: ADME. Conditions: liver microsomes, read-out: TDI.
Data set [19] concerns the target CYP2D6 (Homo sapiens, UniProt P10635). Briefly: Inhibition of CYP2D6 in human hepatic microsomes assessed as reduction in probe substrate metabolism at 10 uM. Particulars: liver microsomes. The format is ADME.
Data set [20] concerns the target T2, Prostaglandin E synthase. In words: Inhibition of dog mPGES-1.
Data set [21] is described as follows: Volume of distribution at steady state in Beagle dog at 1 mg/kg, iv. Format: ADME, organism-based, Canis lupus familiaris. Particulars: in vivo, read-out: Vdss.
Data set [22] has as its target T3, CYP3A4. In words: Inhibition of CYP3A4 in human hepatic microsomes assessed as reduction in probe substrate metabolism at 10 uM. Format: ADME. Conditions: liver microsomes.
Data set [23] concerns the target T1, Prostaglandin E synthase. In words: Inhibition of mPGES-1 (unknown origin).
Data set [24] can be described thus: Time at which plasma concentration remains above human whole blood IC50 level in human at 200 mg, po. Format: ADME.

Sequence of CYP2C9 (P11712 whole entry): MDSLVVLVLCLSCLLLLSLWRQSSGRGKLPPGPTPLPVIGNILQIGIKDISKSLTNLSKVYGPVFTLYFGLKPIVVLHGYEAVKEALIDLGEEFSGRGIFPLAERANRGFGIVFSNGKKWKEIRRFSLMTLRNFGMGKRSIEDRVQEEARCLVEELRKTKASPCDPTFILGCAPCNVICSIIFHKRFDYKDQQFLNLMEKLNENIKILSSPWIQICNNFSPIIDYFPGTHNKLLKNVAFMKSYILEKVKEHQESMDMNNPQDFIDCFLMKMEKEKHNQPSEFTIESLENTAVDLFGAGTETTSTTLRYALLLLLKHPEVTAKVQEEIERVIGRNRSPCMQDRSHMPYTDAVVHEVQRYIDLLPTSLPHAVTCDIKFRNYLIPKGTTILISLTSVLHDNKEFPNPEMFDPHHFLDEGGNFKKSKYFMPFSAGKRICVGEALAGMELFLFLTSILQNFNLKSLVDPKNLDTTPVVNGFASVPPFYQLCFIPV
T3 sequence (P08684 whole entry): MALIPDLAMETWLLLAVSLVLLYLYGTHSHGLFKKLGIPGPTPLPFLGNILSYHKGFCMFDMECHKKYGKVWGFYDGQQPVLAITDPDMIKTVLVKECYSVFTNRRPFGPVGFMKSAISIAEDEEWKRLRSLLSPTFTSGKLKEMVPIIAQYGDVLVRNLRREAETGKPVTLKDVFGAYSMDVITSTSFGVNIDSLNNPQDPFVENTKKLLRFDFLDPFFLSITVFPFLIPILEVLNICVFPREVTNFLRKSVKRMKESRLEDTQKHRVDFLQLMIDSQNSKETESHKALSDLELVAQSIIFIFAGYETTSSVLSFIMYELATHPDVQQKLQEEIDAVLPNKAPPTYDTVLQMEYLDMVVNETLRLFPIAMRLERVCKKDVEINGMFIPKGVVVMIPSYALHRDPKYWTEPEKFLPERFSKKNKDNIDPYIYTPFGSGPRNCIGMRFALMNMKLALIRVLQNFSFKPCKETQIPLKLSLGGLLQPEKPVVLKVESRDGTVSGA
Sequence of CYP2D6 (P10635 whole entry): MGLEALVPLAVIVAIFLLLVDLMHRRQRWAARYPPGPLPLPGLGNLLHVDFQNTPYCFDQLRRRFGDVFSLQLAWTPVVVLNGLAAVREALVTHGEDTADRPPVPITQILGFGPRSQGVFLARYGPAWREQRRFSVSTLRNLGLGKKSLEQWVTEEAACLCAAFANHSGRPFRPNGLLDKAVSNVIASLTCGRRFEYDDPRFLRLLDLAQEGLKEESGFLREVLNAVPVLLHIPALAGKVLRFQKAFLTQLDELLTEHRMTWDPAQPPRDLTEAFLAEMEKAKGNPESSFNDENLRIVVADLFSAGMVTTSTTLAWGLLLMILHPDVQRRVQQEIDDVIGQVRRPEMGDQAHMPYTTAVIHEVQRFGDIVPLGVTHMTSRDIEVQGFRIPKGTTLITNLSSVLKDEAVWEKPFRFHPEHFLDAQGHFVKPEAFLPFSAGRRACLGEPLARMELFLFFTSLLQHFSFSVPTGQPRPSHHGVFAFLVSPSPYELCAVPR

With `Cc1cccc2ccc(N3CC[C@H](C(=O)N[C@H](C)C(C)C)C(C)(C)C3)nc12`, the results for the IC50 in data set [1], in [2] and in data set [3] were 77 nM, 12 nM and 89 nM, respectively.

As to `Cc1cccc2ccc(N3CC[C@H](C(=O)N[C@H]4CCO[C@H](CO)C4)C(C)(C)C3)nc12`, the half-life (usually how long it takes for the measured level to halve) in [4] was 2.3 h. In addition, the bioavailability (in general, dose-corrected exposure relative to a reference, in per cent) amounted to 74% in data set [5] and 100% in [11]. Besides, the metabolised at 4 µM in data set [6] turned out to be 20%; in data set [15], 16%; in data set [17], 13%. The figures for the Vd in data set [7] and in [21] were 2.3 L/kg and 1.6 L/kg, respectively. For the same compound, the half-maximal inhibitory concentration (IC50) (as a rule, the point on the concentration scale where inhibition reaches its midpoint) in data set [1] is 7 nM; in data set [10], 7870 nM; in [2], 2 nM; in [13], 23 to 28 nM; in data set [3] it was 5 nM; in data set [20], 11 nM. Further, the clearance (in general, a measure of how efficiently the substance is removed, as volume per time) was 3.62 mL/min/kg in data set [8] and 14 mL/min/kg in data set [14]. In [9], the peak concentration (Cmax) (usually the maximum level reached in the sampled fluid or tissue) was 2050 nM. Further, the inhibition at 10 µM in data set [12] amounted to 15%; in [18], 39%; in data set [19], 0%; in data set [22], 10%. Moreover, in [16], the Time was determined as 24 h.

The compound `Cc1cc2nc(N3CCC(C(=O)NC4CCCC4)CC3)n(-c3ccc(F)c(C)c3)c2cc1C` displayed an IC50 in data set [23] of 25 nM.

Consider `CC1(C)CN(c2ccc(C(F)(F)F)cc2)CC[C@@H]1C(=O)N[C@H]1CCC[C@H](CO)C1`, for which the results for the IC50 in [1], in data set [2] and in data set [3] were 5 nM, 3 nM and 11 nM, respectively.

Take `CC1(C)CN(c2ccc3cccc(Cl)c3n2)CC[C@H]1C(=O)N[C@H]1CC[C@@H](CO)CC1`: the IC50 in data set [2] is 3720 nM; in data set [3], greater than 10000 nM.

As to `Cc1cccc2ccc(N3CC[C@H](C(=O)N[C@H]4CC[C@@H](CO)CC4)C(C)(C)C3)nc12`, in [4], the half-life was 2.6 h. In addition, the results for the metabolised at 4 µM in data set [6], in data set [15] and in data set [17] were 46%, 64% and 60%, respectively. Further, the Vd in data set [7] worked out at 1.4 L/kg. Also, the IC50 came to 2 nM in data set [1], 1 nM in [2] and 2 nM in data set [3]. Moreover, the highest level in data set [9] (Cmax) was 1450 nM. In data set [11], this compound showed a bioavailability of 54%. In addition, the inhibition at 10 µM in [12] was 54%; in data set [18], 75%; in [19], 4%; in [22], 35%. This compound also came in with a clearance in [14] of 21 mL/min/kg.

In [24], `Cc1ccc(-c2cc(C(F)(F)F)nn2-c2ccc(S(N)(=O)=O)cc2)cc1` [CELECOXIB] yielded a Time of 8 to 12 h.

`Cc1cccc2ccc(N3CC[C@H](C(=O)N[C@H]4CCOC4)C(C)(C)C3)nc12`: the IC50 in data set [1] turned out to be 51 nM; in data set [2], 6 nM; in data set [3] it was 23 nM.

As for `CC1(C)CN(c2ccc3cccc(Cl)c3n2)CC[C@@H]1C(=O)N[C@H]1CC[C@@H](CO)CC1`, the IC50 in [1] was 23 nM; in data set [2], 4 nM; in data set [3] it was 30 nM.

On to `Cc1cccc2ccc(N3CC[C@H](C(=O)N[C@H]4CCC[C@H](CO)C4)C(C)(C)C3)nc12`, for which, in data set [4], the half-life was 0.6 h. The values for the metabolised at 4 µM in data set [6], in data set [15] and in data set [17] were 50%, 73% and 57%, respectively. The Vd in [7] was determined as 1.3 L/kg. Further, the IC50 worked out at 1 nM in data set [1], 1 nM in [2] and 3 nM in data set [3]. Besides, the Cmax in [9] was 1430 nM. This compound also yielded a bioavailability in [11] of 30%. Moreover, the inhibition at 10 µM in data set [12] was 64%; in data set [18], 82%; in data set [19], 0%; in data set [22], 43%. In addition, in data set [14], the clearance amounted to 34 mL/min/kg.

Regarding `Cc1cccc2ccc(N3CC[C@H](C(=O)N[C@H]4CCCOC4)C(C)(C)C3)nc12`, the IC50 in [1] amounted to 36 nM; in [2], 7 nM; in [3], 72 nM.

As to `CC1(C)CN(c2ccc(C(F)(F)F)cc2)CC[C@H]1C(=O)N[C@H]1CCC[C@H](CO)C1`, the values for the IC50 in data set [2] and in data set [3] were 504 nM and 4500 nM, respectively.
